Laboratory results: US6608082B1, “Treatment of erectile dysfunction using isoquinoline compound melanocortin receptor ligands” (Lion Bioscience AG, priority 1998, dated 2003)
pIC50: −log10 of the molar value. Like-named read-outs stand apart in the source and are kept apart here. One block for each compound: values may come before it.

Tests used:
MCR-4 = biological target: T1, MCR-4 (Homo sapiens, UniProt P32245); test: Melanocortin receptor binding assay, competition with 125I-HP 467, HEK 293 cells expressing hMCR-4
T1 construct: expressed in transfected cells; host or cells: HEK 293
T1 sequence (P32245 whole entry): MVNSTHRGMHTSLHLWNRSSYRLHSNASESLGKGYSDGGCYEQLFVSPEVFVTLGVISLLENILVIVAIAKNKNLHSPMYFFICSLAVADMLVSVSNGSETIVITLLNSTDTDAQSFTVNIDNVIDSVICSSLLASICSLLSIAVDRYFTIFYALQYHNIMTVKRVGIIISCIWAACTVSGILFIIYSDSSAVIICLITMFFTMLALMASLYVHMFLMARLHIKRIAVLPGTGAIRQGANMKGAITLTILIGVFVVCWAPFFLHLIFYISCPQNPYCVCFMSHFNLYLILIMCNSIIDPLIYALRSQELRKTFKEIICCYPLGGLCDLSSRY
Description: All cell culture media and reagents were obtained from GibcoBRL (Gaithersburg Md.), except for COSMIC CALF SERUM (HyClone; Logan Utah).
Cells were suspended in PBS, 10% COSMIC CALF SERUM and 1 mM CaCl2. Cell suspensions were prepared at a density of 2×10^4 cells/ml for HEK 293 cells expressing hMCR-3, hMCR-4 or hMCR-5, and 1×10^5 cells/ml for HEK 293 cells expressing hMCR-1. Suspensions were placed in a water bath and allowed to warm to 37° C. for 1 hr.
Binding assays were performed in a total volume of 250 μl for HEK 293 cells. […] To each tube was added 4×10^3 HEK 293 cells expressing hMCR-3, hMCR-4 or hMCR-5, or 2×10^4 cells expressing hMCR-1. Assays were incubated for 2.5 hr at 37° C.
GF/B filter plates were prepared by soaking for at least one hour in 5 mg/ml BSA and 10 mM CaCl2. Assays were filtered using a Brandel 96-well cell harvester (Brandel Inc.; Gaithersburg, Md.). The filters were washed four times with cold 50 mM Tris, pH 7.4, the filter plates were dehydrated for 2 hr and 35 μl of MICROSCINT was added to each well. Filter plates were counted using a Packard Topcount (Packard Instrument Co.) and data analyzed using GraphPad PRISM v2.0 (GraphPad Software Inc.; San Diego Calif.) and Microsoft EXCEL v5.0a (Microsoft Corp.; Redmond Wash.).
To assay isoquinoline compounds, binding assays were performed in duplicate in a 96 well format. […] A 0.2 ml aliquot of suspended cells was added to each well to give the cell numbers indicate above, and the cells were incubated at 37° C. for 2.5 hr. Cells were harvested on GF/B filter plates as described above and counted.

MCR-1 = biological target: T2, MCR-1 (Homo sapiens, UniProt Q01726); test: Melanocortin receptor binding assay, competition with 125I-HP 467, HEK 293 cells expressing hMCR-1
T2 construct: expressed in transfected cells; host or cells: HEK 293
T2 sequence (Q01726 whole entry): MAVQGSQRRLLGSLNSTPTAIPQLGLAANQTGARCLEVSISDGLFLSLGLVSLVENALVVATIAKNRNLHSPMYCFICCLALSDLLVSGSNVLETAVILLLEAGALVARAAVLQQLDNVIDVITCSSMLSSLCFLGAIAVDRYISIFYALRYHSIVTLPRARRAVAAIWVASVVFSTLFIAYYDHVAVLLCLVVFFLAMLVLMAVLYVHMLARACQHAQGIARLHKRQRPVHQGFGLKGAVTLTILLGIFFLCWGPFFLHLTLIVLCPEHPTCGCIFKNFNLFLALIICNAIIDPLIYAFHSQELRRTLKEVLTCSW
Method in brief: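 Test compounds compete on intact HEK 293 cells carrying hMCR-1 (2×10^4 per tube) or hMCR-4 (4×10^3 per tube), suspended in PBS, 10% calf serum, 1 mM CaCl2.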

[1] = inhibition of binding of 125I-HP 467, HEK 293 cells expressing MCR-4; TRG 2414 library; read-out: MC-4 IC50
[2] = inhibition of binding of 125I-HP 467, HEK 293 cells expressing MCR-1; TRG 2414 library; read-out: MC-1 IC50
[3] = inhibition of binding of 125I-HP 467, HEK 293 cells expressing MCR-4; read-out: MC-4 IC50
[4] = inhibition of binding of 125I-HP 467, HEK 293 cells expressing MCR-1; read-out: MC-1 IC50
[5] = TRG 2414 library; inhibition of binding of 125I-HP 467, HEK 293 cells expressing MCR-4; read-out: MC-4 IC50
[6] = TRG 2414 library; inhibition of binding of 125I-HP 467, HEK 293 cells expressing MCR-1; read-out: MC-1 IC50
[7] = TRG 2414 library; inhibition of binding of 125I-HP 467, HEK 293 cells expressing MCR-4
[8] = TRG 2414 library; inhibition of binding of 125I-HP 467, HEK 293 cells expressing MCR-1

Structure (SMILES): CCCOc1ccc(C2C(CNCCc3cccc(Cl)c3)c3ccccc3CN2CCCCC(CN)NCCc2ccccc2)cc1 (mixture of isomers) [TRG 2414-174]
pIC50 (MCR-4; [1]): 5.27 | pIC50 (MCR-1; [2]): 5.37

Structure (SMILES): CCCOc1ccc(C2C(CO)c3ccccc3CN2CCCC(CN)NCCC2CCCCC2)cc1 (mixture of isomers) [TRG 2415-4]
pIC50 (MCR-4; [3]): 5.59 | pIC50 (MCR-1; [4]): 5.59

Structure (SMILES): CCCCOc1ccc(C2C(CN)c3ccccc3CN2CCCCC(CN)NCC)cc1 (mixture of isomers) [TRG 2415-18]
pIC50 (MCR-4; [3]): 5.10 | pIC50 (MCR-1; [4]): 6.51

Structure (SMILES): Cc1ccc(CNC(CN)CCCCN2Cc3ccccc3C(CNCCc3ccccc3)C2c2cc(C(F)(F)F)cc(C(F)(F)F)c2)cc1 (mixture of isomers) [TRG 2421-2]
pIC50 (MCR-4; [3]): 5.52 | pIC50 (MCR-1; [4]): 5.43

Structure (SMILES): NCC(CCCCN1Cc2ccccc2C(CNCCc2ccc(O)cc2)C1c1cc(C(F)(F)F)cc(C(F)(F)F)c1)NCc1ccc(Br)cc1 (mixture of isomers) [TRG 2421-8]
pIC50 (MCR-4; [3]): 5.22 | pIC50 (MCR-1; [4]): 5.30

Structure (SMILES): COc1ccc(CCNCC2c3ccccc3CN(CCCCC(CN)NCc3ccc(C)cc3)C2c2cc(C(F)(F)F)cc(C(F)(F)F)c2)cc1OC (mixture of isomers) [TRG 2421-17]
pIC50 (MCR-4; [3]): 6.08 | pIC50 (MCR-1; [4]): 5.69

Structure (SMILES): CCNc1ccc(C2C(CNCCc3ccccc3)c3ccccc3CN2CCC[C@@H](CN)NCCCCOc2ccccc2)cc1 (some centres unmarked) [2424#5]
pIC50 (MCR-4; [3]): 5.82 | pIC50 (MCR-1; [4]): 7.30

Structure (SMILES): CCNc1ccc(C2C(CNCCc3ccccc3)c3ccccc3CN2CCCC[C@@H](CN)NCCCCOc2ccccc2)cc1 (some centres unmarked) [2424#11]
pIC50 (MCR-4; [3]): 5.45 | pIC50 (MCR-1; [4]): 6.68

Structure (SMILES): CCCOc1ccc(C2C(CNCCc3ccc(OC)cc3)c3ccccc3CN2CCCCC(N)CN)cc1 (centres unmarked) [Cmpd 185]
pIC50 (MCR-4; [5]): 5.37 | pIC50 (MCR-1; [6]): 6.27

Structure (SMILES): CCCOc1ccc(C2C(CNCCc3ccc(OC)cc3)c3ccccc3CN2CCCCC(CN)NCCc2ccccc2)cc1 (centres unmarked) [Cmpd 186]
pIC50 (MCR-4; [5]): 5.09 | pIC50 (MCR-1; [6]): 5.55

Structure (SMILES): CCCOc1ccc(C2C(CNCCc3ccc(OC)cc3)c3ccccc3CN2CCCCC(CN)NCC(C)c2ccc(CC(C)C)cc2)cc1 (centres unmarked) [Cmpd 188]
pIC50 (MCR-4; [5]): 4.70 | pIC50 (MCR-1; [6]): 5.10

Structure (SMILES): CCCOc1ccc(C2C(CNC3CCCCCC3)c3ccccc3CN2CCCCC(N)CN)cc1 (centres unmarked) [Cmpd 193]
pIC50 (MCR-4; [5]): 5.18 | pIC50 (MCR-1; [6]): 5.79

Structure (SMILES): CCCOc1ccc(C2C(CNC3CCCCCC3)c3ccccc3CN2CCCCC(CN)NCCc2ccccc2)cc1 (centres unmarked) [Cmpd 194]
pIC50 (MCR-4; [5]): 5.29 | pIC50 (MCR-1; [6]): 5.41

Structure (SMILES): CCCOc1ccc(C2C(CNC3CCCCCC3)c3ccccc3CN2CCCCC(CN)NCc2ccccc2)cc1 (centres unmarked) [Cmpd 195]
pIC50 (MCR-4; [5]): 5.39 | pIC50 (MCR-1; [6]): 5.86

Structure (SMILES): CCCOc1ccc(C2C(CNC3CCCCC3)c3ccccc3CN2CCCCC(N)CN)cc1 (centres unmarked) [Cmpd 197]
pIC50 (MCR-4; [5]): 4.90 | pIC50 (MCR-1; [6]): 6.38

Structure (SMILES): CCCOc1ccc(C2C(CNC3CCCCC3)c3ccccc3CN2CCCCC(CN)NCCc2ccccc2)cc1 (centres unmarked) [Cmpd 198]
pIC50 (MCR-4; [5]): 5.43 | pIC50 (MCR-1; [6]): 5.52

Structure (SMILES): CCCOc1ccc(C2C(CNC3CCCCC3)c3ccccc3CN2CCCCC(CN)NCc2ccccc2)cc1 (centres unmarked) [Cmpd 199]
pIC50 (MCR-4; [5]): 5.29 | pIC50 (MCR-1; [6]): 5.89

Structure (SMILES): NCC(CCCCN1Cc2ccccc2C(CNCc2ccccc2C(F)(F)F)C1c1ccccc1Br)NCc1ccccc1 (centres unmarked) [Cmpd 203]
pIC50 (MCR-4; [5]): 4.40 | pIC50 (MCR-1; [6]): 4.52

Structure (SMILES): CCOc1ccccc1CNCC1c2ccccc2CN(CCCCC(CN)NCCc2ccccc2)C1c1ccccc1Br (centres unmarked) [Cmpd 206]
pIC50 (MCR-4; [5]): 5.21 | pIC50 (MCR-1; [6]): 5.15

Structure (SMILES): COc1ccccc1CCNCC1c2ccccc2CN(CCCCC(N)CN)C1c1ccccc1Br (centres unmarked) [Cmpd 209]
pIC50 (MCR-4; [5]): 5.86 | pIC50 (MCR-1; [6]): 5.77

Structure (SMILES): COc1ccccc1CCNCC1c2ccccc2CN(CCCCC(CN)NCCc2ccccc2)C1c1ccccc1Br (centres unmarked) [Cmpd 210]
pIC50 (MCR-4; [5]): 5.35 | pIC50 (MCR-1; [6]): 5.43

Further lines, results first:

pIC50 (MCR-4; [1]): 5.17 | pIC50 (MCR-1; [2]): 5.56
Structure (SMILES): NCC(CCCCN1Cc2ccccc2C(CNC2CCCCC2)C1c1ccc(Oc2ccccc2)cc1)NCCc1ccccc1 (mixture of isomers) [TRG 2414-158]

pIC50 (MCR-4; [1]): 4.73 | pIC50 (MCR-1; [2]): 4.72
Structure (SMILES): CCCOc1ccc(C2C(CNCc3ccccc3C(F)(F)F)c3ccccc3CN2CCCCC(CN)NCCc2ccccc2)cc1 (mixture of isomers) [TRG 2414-162]

pIC50 (MCR-4; [1]): 5.30 | pIC50 (MCR-1; [2]): 6.00
Structure (SMILES): CCCOc1ccc(C2C(CNCc3ccccc3OCC)c3ccccc3CN2CCCCC(N)CN)cc1 (mixture of isomers) [TRG 2414-165]

pIC50 (MCR-4; [1]): 5.29 | pIC50 (MCR-1; [2]): 6.13
Structure (SMILES): CCCOc1ccc(C2C(CNCc3cccc(OC)c3)c3ccccc3CN2CCCCC(N)CN)cc1 (mixture of isomers) [TRG 2414-177]

pIC50 (MCR-4; [1]): 4.33 | pIC50 (MCR-1; [2]): 5.09
Structure (SMILES): CCCOc1ccc(C2C(CNCc3cccc(OC)c3)c3ccccc3CN2CCCCC(CN)NCC(C)c2ccc(CC(C)C)cc2)cc1 (mixture of isomers) [TRG 2414-180]

pIC50 (MCR-4; [3]): 5.11 | pIC50 (MCR-1; [4]): 7.30
Structure (SMILES): CCNc1ccc(C2C(CN)c3ccccc3CN2CCC[C@@H](CN)NCCCCOc2ccccc2)cc1 (some centres unmarked) [2424#2]

pIC50 (MCR-4; [3]): 5.29 | pIC50 (MCR-1; [4]): 6.66
Structure (SMILES): CCNc1ccc(C2C(CN)c3ccccc3CN2CCCC[C@@H](CN)NCCCCOc2ccccc2)cc1 (some centres unmarked) [2424#8]

pIC50 (MCR-4; [5]): 5.83 | pIC50 (MCR-1; [6]): 5.97
Structure (SMILES): CCCOc1ccc(C2C(CNCCc3ccc(OC)cc3)c3ccccc3CN2CCCCC(CN)NCc2ccccc2)cc1 (centres unmarked) [Cmpd 187]

pIC50 (MCR-4; [5]): 5.64 | pIC50 (MCR-1; [6]): 6.06
Structure (SMILES): CCCOc1ccc(C2C(CNCc3ccccc3)c3ccccc3CN2CCCCC(N)CN)cc1 (centres unmarked) [Cmpd 189]

pIC50 (MCR-4; [5]): 5.27 | pIC50 (MCR-1; [6]): 5.84
Structure (SMILES): CCCOc1ccc(C2C(CNCc3ccccc3)c3ccccc3CN2CCCCC(CN)NCCc2ccccc2)cc1 (centres unmarked) [Cmpd 190]

pIC50 (MCR-4; [5]): 5.26 | pIC50 (MCR-1; [6]): 5.71
Structure (SMILES): CCCOc1ccc(C2C(CNCc3ccccc3)c3ccccc3CN2CCCCC(CN)NCc2ccccc2)cc1 (centres unmarked) [Cmpd 191]

pIC50 (MCR-4; [5]): 4.43 | pIC50 (MCR-1; [6]): 4.88
Structure (SMILES): CCCOc1ccc(C2C(CNC3CCCCCC3)c3ccccc3CN2CCCCC(CN)NCC(C)c2ccc(CC(C)C)cc2)cc1 (centres unmarked) [Cmpd 196]

pIC50 (MCR-4; [5]): 4.77 | pIC50 (MCR-1; [6]): 5.12
Structure (SMILES): CCCOc1ccc(C2C(CNC3CCCCC3)c3ccccc3CN2CCCCC(CN)NCC(C)c2ccc(CC(C)C)cc2)cc1 (centres unmarked) [Cmpd 200]

MC-4 IC50 (MCR-4; [7]): no fit | MC-1 IC50 (MCR-1; [8]): no fit
Structure (SMILES): NCC(N)CCCCN1Cc2ccccc2C(CNCc2ccccc2C(F)(F)F)C1c1ccccc1Br (centres unmarked) [Cmpd 201]

pIC50 (MCR-4; [5]): 4.47 | pIC50 (MCR-1; [6]): 4.66
Structure (SMILES): NCC(CCCCN1Cc2ccccc2C(CNCc2ccccc2C(F)(F)F)C1c1ccccc1Br)NCCc1ccccc1 (centres unmarked) [Cmpd 202]

MC-4 IC50 (MCR-4; [7]): no fit | MC-1 IC50 (MCR-1; [8]): no fit
Structure (SMILES): CC(C)Cc1ccc(C(C)CNC(CN)CCCCN2Cc3ccccc3C(CNCc3ccccc3C(F)(F)F)C2c2ccccc2Br)cc1 (centres unmarked) [Cmpd 204]

pIC50 (MCR-4; [5]): 5.19 | pIC50 (MCR-1; [6]): 5.11
Structure (SMILES): CCOc1ccccc1CNCC1c2ccccc2CN(CCCCC(CN)NCc2ccccc2)C1c1ccccc1Br (centres unmarked) [Cmpd 207]

pIC50 (MCR-4; [5]): 4.68 | pIC50 (MCR-1; [6]): 4.46
Structure (SMILES): CCOc1ccccc1CNCC1c2ccccc2CN(CCCCC(CN)NCC(C)c2ccc(CC(C)C)cc2)C1c1ccccc1Br (centres unmarked) [Cmpd 208]

pIC50 (MCR-4; [5]): 5.38 | pIC50 (MCR-1; [6]): 5.45
Structure (SMILES): COc1ccccc1CCNCC1c2ccccc2CN(CCCCC(CN)NCc2ccccc2)C1c1ccccc1Br (centres unmarked) [Cmpd 211]
